Measurements reported in the METLIN SMRT retention time set (Domingo-Almenara et al. 2019).

Experiment: gradient 5% acetonitrile 3 min, to 50% in 2 min, to 85% in 15 min, held 3 min, 100 µL/min
Conditions: column: Zorbax Extend-C18 2.1 x 50 mm; eluents: water / acetonitrile, 0.1% formic acid
Method in brief: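 Retention times come from adduct peaks that were picked computationally and then checked by hand. The standards, pure and pooled in mixtures of ~100 molecules, were run on a Zorbax Extend-C18 column (2.1 × 50 mm, 1.8 μm) at 100 μL/min with water and acetonitrile, each with 0.1% formic acid. Detection was by quadrupole time-of-flight mass spectrometry in positive and negative ionization mode, with a dead volume of 40 μL and a dwell volume of 900 μL.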

| RP-LC retention time [s] | Compound |
| --- | --- |
| 702 | COC(=O)c1ccc(C2NC(=O)c3[nH]nc(-c4ccc(OC)cc4)c32)cc1 (configuration not stated) |
| 999 | Cc1ccc(-c2nnc(-c3ccccc3Cl)o2)cc1S(=O)(=O)N(C)C |
| 603 | O=C(CN1CCN(Cc2ccc(F)cc2)C(=O)C1=O)N1CCN(Cc2ccccc2)CC1 |
| 819 | CCC(C)NC(=O)c1nc(Nc2cccc(C)c2)c2ccccc2n1 (configuration not stated) |
| 643 | O=C(CS(=O)Cc1cnn(-c2ccccc2)c1-n1cccc1)N1CCN(C2CCCCC2)CC1 (configuration not stated) |
| 647 | Cc1cc(C)c(S(=O)(=O)NCCn2c(C)cnc2C2CC2)c(C)c1 |
| 1000 | CC1CCN(C(=O)C2=NN(Cc3ccc(F)cc3)c3ccccc3S2(=O)=O)CC1 |
| 780 | CCn1nc(C)c(S(=O)(=O)N2CCN(C(=O)C(C)Oc3ccccc3)CC2)c1C (configuration not stated) |
| 858 | Cc1noc([C@@H]2CC(F)(F)CN2S(=O)(=O)c2ccccc2)n1 |
| 788 | O=C1CCCc2cc(S(=O)(=O)N3CCCC(C(=O)N4CCN(c5ccccc5)CC4)C3)ccc2N1 (configuration not stated) |
| 662 | CCc1noc(-c2cccnc2N2CCCN(Cc3ccccc3F)CC2)n1 |
| 726 | CCOC(=O)c1cc(-c2ccc(OC)c(S(=O)(=O)N3CCN(c4ccccn4)CC3)c2)on1 |
| 784 | Cc1cc2c(c(=O)n(-c3ccccc3)c(=O)n2CC(=O)Nc2cccc(C#N)c2)n1C |
| 671 | O=C(N[C@H]1C[C@@H]2C[C@H]1N(C(=O)c1ccco1)C2)c1ccccc1 |
| 856 | Cc1c(C#N)c2ccccc2n1CC(=O)NCc1ccc2c(c1)OCCCO2 |
| 646 | COc1ccc(C(C)NC(=O)c2ccc3ncnc(N4CCCC4)c3c2)cc1 (configuration not stated) |
| 884 | COc1ccc(Cn2nnc(C(=O)N3CCSCC3)c2-n2cccc2)cc1 |
| 707 | O=S(=O)(NCc1cccnc1)c1ccc(Cl)c(-c2nnc(-c3ccccc3)o2)c1 |
| 1190 | COCCCn1c(=O)c2ccccc2n(Cc2nc(-c3cccc(Br)c3)no2)c1=O |
| 876 | Cc1cccc(NC(=O)Cn2c(=O)n(-c3ccc(F)cc3)c3ncccc32)c1 |
| 1120 | COC(=O)c1ccccc1NC(=O)CCCn1c(=O)c2cccn2c2ccc(Br)cc21 |
| 757 | COc1ncccc1CNS(=O)(=O)c1ccccc1 |
| 938 | COc1ccc(C(=O)NC2(c3nc(-c4cccnc4)no3)CCCCC2)cc1F |

| RP-LC retention time [s] | Compound |
| --- | --- |
| 1070 | Cc1cc(C)c(-c2csc(NC(=O)c3ccccc3[N+](=O)[O-])n2)c(C)c1 |
| 898 | COc1ccccc1NC(=O)N1CCC(n2c(C(F)(F)F)nc3cccnc32)CC1 |
| 534 | Cc1ccc(CNC(=O)Nc2cnc3c(c2)CCC3)cc1 |
| 563 | CN(CCC#N)C(=O)Cn1nc(Cc2cccnc2)c2ccccc2c1=O |
| 870 | O=C(NCc1nn(Cc2ccccc2)c2ccccc12)c1ccoc1 |
| 679 | Cc1ccc(S(=O)(=O)c2cnc(N3CCN(Cc4ccc5c(c4)OCO5)CC3)nc2N)cc1 |
| 849 | CCCN1C(=O)COc2ccc(-c3noc(CNC(=O)Cc4ccccc4)n3)cc21 |
| 849 | Cn1c(=O)c(N2CCC(NC(=O)Nc3ccc(F)cc3)CC2)nc2ccccc21 |
| 988 | O=C(CN1C(=O)C2CCCCN2c2ccc(S(=O)(=O)N3CCCCC3)cc21)NCc1ccccc1 (configuration not stated) |
| 1090 | Cc1csc(-c2csc(S(=O)(=O)N3CCN(c4ccccc4)CC3)c2)n1 |
| 649 | O=C(NC1CC1)[C@@H]1C[C@H](Oc2ccccc2)CN1C(=O)c1ccc2ncccc2c1 |
| 847 | O=C1[C@H](Cc2ccc(O)cc2)N2C(=O)CCN(C(=O)NCc3ccccc3)[C@H]2CN1Cc1cccc2ccccc12 |
| 884 | CC(=O)N1CCc2sc(S(=O)(=O)N3CCN(c4ccccc4)CC3)cc2C1 |
| 620 | CC1CN=C2C=C(N3CCN(C(=O)CCc4ccccc4)CC3)N=CN21 (configuration not stated) |
| 663 | O=C(O)c1nnn(-c2ccc(Cl)cc2)c1-c1ccncc1 |
| 832 | CCN1C(=O)c2cccnc2Sc2cc(NC(=O)c3ccc(F)cc3)ccc21 |
| 595 | CN(C)S(=O)(=O)c1ccc(-c2nnc(C(=O)NCc3cccnc3)o2)cc1 |
| 724 | O=C(NCC(c1cccnc1)c1c[nH]c2ccccc12)Nc1ccc(Br)cc1 (configuration not stated) |
| 898 | CCCc1nnsc1C(=O)N1CC(c2nc(Cc3ccccc3OC)no2)C1 |
| 684 | O=C(NCc1ccccc1Cl)C1CCN(c2cnc(N3CCCC3)nc2)CC1 |
| 1160 | COc1ccccc1-n1nnc(C(=O)OCc2nc(-c3cccc(Cl)c3)oc2C)c1C |
| 648 | Cc1cccc(C(=O)NC(C)C(=O)Nc2nc3ccccc3[nH]2)c1 (configuration not stated) |
| 704 | CCCn1cc(CCNC(=O)Nc2ccc3c(c2)OCCO3)c2cccnc21 |

Continued, compound first:

| Compound | RP-LC retention time [s] |
| --- | --- |
| COc1cc(OC)cc(C(=O)N2CCC3(CC2)NC(=O)c2cc(C)ccc2N3C)c1 | 795 |
| CC(C)NC(=O)c1ccc(-c2ccc(N3CCSCC3)nc2)cc1 | 663 |
| Cc1cc(N2CCCCC2)n2nc(CN3CCN(c4ccccc4F)CC3)nc2n1 | 673 |
| O=c1c2scc(-c3cccc(F)c3)c2ncn1Cc1ccc(Br)cc1 | 1170 |
| CCC(=O)N1CCCN(C2=NS(=O)(=O)C(c3ccc(C)cc3)=C2C)CC1 | 742 |
| Cc1sc2ncnc(N3CCCCC3)c2c1C(=O)NCc1cc(F)ccc1F | 1020 |
| COc1cc2c(cc1C(=O)NCCOc1ccc(Cl)cc1)OCCCO2 | 982 |
| CSc1cccc(NC(=O)N2CCC(c3nc(C(=O)N(C)C)c(C)o3)CC2)c1 | 732 |
| CNC(=O)c1cc(C)nc2c(C)cccc12 | 570 |
| CC1(C)CC(=O)c2cn(-c3ccc(Cl)cc3)c(=O)c(C(=O)N3CCN(c4ccccn4)CC3)c2C1 | 650 |
| COC(=O)c1ccc(NC(=O)Cn2cccc(-c3nc(-c4ccc(Cl)cc4)no3)c2=O)cc1 | 934 |
| CCNc1cc(N2CCCC(CCC(=O)NC(C)C)C2)ncn1 (configuration not stated) | 601 |
| Cn1ncc2c(N3CCSCC3)nc(C(=O)NCCc3cccnc3)nc21 | 575 |
| O=C1CC(c2noc(-c3cccc(F)c3)n2)CN1c1ccc(Cl)cc1 (configuration not stated) | 1080 |
| COc1cccc(C2CC(c3ccc(C)c(C)c3)=NC3(CCN(C(C)=O)CC3)N2)c1O (configuration not stated) | 694 |
| COc1ccc(C(F)(F)F)cc1NC(=O)C1CCCN(c2ccc(-n3ccnc3)nn2)C1 (configuration not stated) | 609 |
| CS(=O)(=O)N1CCC(C(=O)N2CC3CC(C2)c2cccc(=O)n2C3)CC1 (configuration not stated) | 528 |
| O=C(Cn1nc2nc(N3CCCC3)ccn2c1=O)Nc1ccc(F)c(Cl)c1 | 708 |
| Cc1cc(N2CCN(C(=O)C3CCC3)CC2)nc2nncn12 | 566 |
| CNC(=O)C1CCN(c2nc3ccc(-c4ccncc4)nc3s2)CC1 | 568 |
| Cc1cc(C)n(C(=O)c2cn(-c3ccc(S(=O)(=O)N4CCCC(C)C4)cn3)cn2)n1 (configuration not stated) | 1020 |

| Compound | RP-LC retention time [s] |
| --- | --- |
| CC(C)(CO)NCc1ccc(-c2cccc(C(F)(F)F)c2)o1 | 660 |
| COc1cccc(/C=C/c2nc(C#N)c(NCCN(C)C)o2)c1 | 654 |
| CCc1ccccc1NC(=O)Cn1cnc2nc(N3CCCC(C(=O)NC(C)C)C3)sc2c1=O (configuration not stated) | 759 |
| Cc1oc(-c2ccc(Cl)cc2)nc1Cn1nnc(C(=O)Nc2cc(F)ccc2F)c1C | 1310 |
| CCOCC(=O)Nc1ccc(CC(=O)NCC(F)(F)F)cc1 | 644 |
| Cc1cc(C(=O)NCC(C)C)c2cccc(Cl)c2n1 | 770 |
| Cn1nccc1-c1cccc(-c2noc(-c3cc(Cl)ccc3F)n2)c1 | 1210 |
| COc1ccccc1-c1noc(C2CCCN2C(=O)c2sc(C)nc2C)n1 (configuration not stated) | 750 |
| CCCc1nnc(C(=O)Nc2cccc(C(=O)NCCc3c[nH]c4ccc(Cl)cc34)c2)s1 | 981 |
| CCN1C(=O)c2ccccc2Oc2ccc(C(=O)N3CCCCCC3)cc21 | 900 |
| COc1ccc(-c2nnc3ccc(SCC(=O)Nc4nc(C)cs4)nn23)cc1OC | 606 |
| O=C(C1CCCN(c2nn3c(=O)c4c(nc3s2)CCCC4)C1)N1CCN(c2ccccc2F)CC1 (configuration not stated) | 868 |
| CC(NC(=O)Cn1cc(C(=O)C2CC2)c2ccccc21)c1ccc2c(c1)OCCCO2 (configuration not stated) | 866 |
| CCOC(=O)N1CCC(NC(=O)CCc2cc3cc(OC)ccc3[nH]c2=O)CC1 | 663 |
| CCCOC(=O)C1=C(C)NC2=C(C(=O)C(C(=O)OC)C(C)C2)C1c1ccccc1OC (configuration not stated) | 906 |
| Cc1nc(-c2ccc3c(c2)CCN3C(=O)c2cccc(C#N)c2)cs1 | 906 |
| COc1ccc(-c2cc(C(=O)NC3CCCCC3)nn2C2CCS(=O)(=O)C2)cc1 (configuration not stated) | 885 |
| Cc1ccc(C(=O)N2C[C@@H](F)C[C@H]2C(=O)N2CCOCC2)cc1 | 621 |
| Cc1cc(C)c(NC(=O)Cn2c(=O)cc(-c3nc(C4CC4)no3)c3ccccc32)c(C)c1 | 999 |
| COC(=O)c1c(C)[nH]c(C(=O)N2CCC(CC(=O)NCc3cccc(C)c3)CC2)c1C | 748 |
